Assay results reported in US20190201494A1, “COMPOSITIONS AND METHODS FOR TREATING NICOTINE WITHDRAWAL” (STC UNM, priority 2016, published 2019).
“Also recorded” adds a separate entry of the source.

What was measured:
[1] = system: overnight abstinent smokers; assay: Questionnaire on Smoking Urges Brief ratings, overnight abstinence with Trier Social Stress Test (Example 1, parallel study); format: in vivo, human
Protocol: Session 2 methodology and results are presented in this publication.
Subjects started their overnight abstinence at 8 PM the night before reporting to the University of New Mexico Clinical and Translational Science Center. At 8 AM the following day, abstinence from smoking was confirmed with a CO reading on a coVita piCO+ breathalyzer less than 50% of their baseline CO recorded at intake. […] Exposure to nicotine was analyzed by quantitative liquid chromatography-tandem mass spectrometry. Cutoff for nicotine was 2 ng/mL for nicotine.
Following negative urine drug and pregnancy tests, at 8:30 AM, subjects completed their morning assessment of smoking urges and mood. A salivary cortisol sample was also taken at this time. They were then provided breakfast (a slice of banana bread, one apple, and two cheese sticks), which they had to eat entirely. The rest of the morning, subjects watched and read emotionally neutral movies and literature. At 11:45 AM, a study nurse inserted the intravenous line, completed a point-of-care (POC) glucose check and nares assessment.
(§1) Intranasal spray administration of insulin or placebo occurred at 12:30 PM. The purpose of the spacing time between morning check-in and nasal spray administration was stabilization of postprandial insulin levels. In a randomized fashion, the study nurse administered one spray in each nostril every three minutes for the total of six sprays of either insulin or placebo. Instructions to perform the Trier Social Stress Test were given at 13:20, and speech delivery occurred 13:30. Briefly, the Trier Social Stress Test^13 is a standardized laboratory stressor consisting of a free speech and a mental arithmetic task in front of an audience. Participants were introduced to the task and instructed to prepare a 5-minute presentation in which they were to promote their candidacy for a job. The speech was delivered after a 10-minute preparation period. Thereafter, participants were introduced to the mental arithmetic task, also standing in front of the audience and a self-projecting television screen. Subjects were required to count backwards from 2023 in steps of 17 as fast and accurately as possible for five minutes; upon making a mistake, subjects were asked to stop and start again at 2023. At every post-stress timepoint (13:40, 13:50, 14:00, 14:10, and 14:40), study nurses checked POC glucose to ensure euglycemia. After the last time point at 14:40, subjects ate a snack, had their glucose level checked, received another nares exam, and were discharged from the clinic at 16:00.
(§2) Subjective measures included the Questionnaire on Smoking Urges (QSU) Brief Form and Positive and Negative Affect Schedule (PANAS). Urges to smoke were rated using the 10-item QSU Brief Form^14 that consists of 10-questions. The answers are scored from 1 (strongly disagree) to 7 (strongly agree). These questions are the basis for the two factor derived subscales. Factor 1 subscale reflects a strong desire and intention to smoke with smoking perceived as rewarding. Factor 2 subscale reflects an anticipation of relief from negative affect with an urgent desire to smoke. Study data analysis included evaluations of both factors. The PANAS (Watson et al., 1988. J Pers Soc Psychol 54(6):1063-1070) consists of 10 negative and 10 positive mood terms rated on five-point Likert-type response scales from 1 (very slightly or not at all) to 5 (extremely). Positive and negative scale scores each range between 10 and 50. The PANAS was chosen as a composite measure of self-reported positive and negative affect. Subjective measures were taken at 08:30, 12:20, 13:00, 13:40, 13:50, 14:00, 14:10 and 14:40.
Placebo contained normal saline (0.9% NaCl). The product was prepared in a biosafety cabinet 30 minutes before administration. Insulin or placebo was placed in a 10 mL amber glass bottle (Gerresheimer AG, Düsseldorf, Germany), which was capped with a 10 mg sterile nasal pump (Aero Pump GmbH, Hochheim, Germany). […]

[2] = cited from earlier work
[3] = system: overnight abstinent smokers; assay: Positive and Negative Affect Schedule (PANAS) mood ratings (Example 1); format: in vivo, human
Excerpt: as §1, §2
Random coefficient models were constructed for analyzing subjective (i.e., craving and mood), blood (insulin, glucose, C-peptide and nonesterified fatty acids) and cardiovascular (blood pressure) measures. For every model, an evaluation of non-linear term was performed, and, if significance was detected, that polynomial term for time was included in the model. Treatment, time and treatment by time interaction were included as fixed effects. Time nested within subjects was included as a random effect. If an interaction was detected, post hoc comparisons were performed comparing treatment groups at each time point. Cortisol was log-transformed for the purpose of normalizing distribution. The summary measure for cortisol analysis was peak change from baseline. Baseline cortisol was the 8:30 AM measurement, and time period for determination of peak was between 13:40 and 14:40. This time period reflects any cortisol change that resulted from the psychosocial stress procedure, with speech occurring from 13:30 to 13:35 and math from 13:35 to 13:40. Group differences were compared using analysis of variance (ANOVA). Significance values are reported as detected; no adjustments were made for multiple comparisons.

[4] = system: overnight abstinent smokers; assay: Salivary cortisol response to Trier Social Stress Test (Example 1); format: in vivo, human; settings: 60 IU vs placebo, F(1,35)=12.78, p≤0.001
Excerpt: Intranasal spray administration of insulin or placebo occurred at 12:30 PM. The purpose of the spacing time between morning check-in and nasal spray administration was stabilization of postprandial insulin levels. In a randomized fashion, the study nurse administered one spray in each nostril every three minutes for the total of six sprays of either insulin or placebo. Instructions to perform the Trier Social Stress Test were given at 13:20, and speech delivery occurred 13:30. Briefly, the Trier Social Stress Test^13 is a standardized laboratory stressor consisting of a free speech and a mental arithmetic task in front of an audience. Participants were introduced to the task and instructed to prepare a 5-minute presentation in which they were to promote their candidacy for a job. […]
Salivary measures: Saliva samples were collected using a saliva collection kit (Salimetrics, LLC, Carlsbad, Calif.). Saliva samples were collected at 08:30, 12:20, 13:00, 13:40, 13:50, 14:00, 14:10, and 14:40, and analyzed for cortisol as follows: A microtitre plate was coated with monoclonal antibodies to cortisol using salivary cortisol ELISA kit (Salimetrics, LLC, Carlsbad, Calif.). […] Bound cortisol peroxidase was measured by the reaction of the peroxidase enzyme on the substrate tetramethylbenzidine (TMB). […] Optical density was read on a standard plate at 450 nm. […]

**Q.** Which results are given for “intranasal insulin: bulk human Regular insulin (U100 Novolin R, Novo Nordisk US), 100 IU/ml, six nasal sprays delivering 60 IU”?
**A.** Smoking urges / nicotine cravings (Questionnaire on Smoking Urges Brief) compared to placebo ([1]; 60 IU intranasal, overnight abstinence, through Trier Social Stress Test, p≤0.05): decreased significantly; also recorded: significant reduction of nicotine cravings; Smoking urges, treatment×time interaction, b ([1]; 60 IU vs placebo, SE(b)=0.032, z=1.93, p≤0.05): 0.064; Smoking urges, main effect of treatment, b ([1]; 60 IU vs placebo, SE(b)=4.81, z=1.39, p=0.16, not significant): 6.66; QSU-Brief Factor 2 (anticipation of relief from negative affect) compared to placebo ([1]; 60 IU, overnight abstinence, interaction non-significant): no effect; also recorded: not Factor 2 scale; QSU-Brief Factor 1 (strong desire and intention to smoke) compared to placebo ([1]; 60 IU, overnight abstinence, p≤0.05): overall decrease in smoking urges was driven by intranasal insulin's effect on Factor 1; QSU-Brief Factor 1 (strong desire and intention to smoke) compared to placebo ([1]; 60 IU, overnight abstinence, p≤0.05, listed as Intranasal insulin): significantly decreased; Duration of effect on QSU-Brief Factor 1 ([1]; 60 IU, detected immediately following treatment administration): ≥ 100 min; QSU-Brief Factor 2, treatment×time interaction, b ([1]; SE(b)=0.01, z=1.48, p=0.14): 0.02; QSU-Brief Factor 1, treatment×time interaction, b ([1]; SE(b)=0.018, z=2.15, p≤0.05): 0.039; QSU-Brief Factor 2, main effect of treatment, b ([1]; SE(b)=2.37, z=1.58, p=0.11): 3.76; QSU-Brief Factor 1, main effect of treatment, b ([1]; SE(b)=2.61, z=1.36, p=0.17): 3.55; CSF insulin levels and peripheral insulin levels after intranasal administration ([2]; humans): increases CSF insulin levels without changing peripheral insulin levels; Time to reach the CSF ([2]; intranasal route): within minutes; Negative mood ratings (PANAS), effect of treatment ([3]; 60 IU vs placebo): the effect of treatment was not significant; Positive mood ratings (PANAS), effect of treatment ([3]; 60 IU vs placebo): no effect; Negative mood ratings (PANAS), effect of treatment ([3]; 60 IU vs placebo, listed as Intranasal insulin): no effect; Negative mood (PANAS), treatment×time interaction, b ([3]; SE(b)=0.01, z=0.10, p=0.92, not significant): 0.001; Positive mood (PANAS), treatment×time interaction, b ([3]; SE(b)=0.017, z=−0.97, p=0.33, not significant): −0.01; Negative mood (PANAS), effect of treatment, b ([3]; SE(b)=1.30, z=1.07, p=0.28, not significant): 1.38; Positive mood (PANAS), treatment, b ([3]; SE(b)=2.47, z=−0.19, p=0.84, not significant): −0.47; Peak salivary cortisol levels following stress procedure (peak change from baseline, log-transformed) [4]: increased (i.e., restored) the blunted cortisol response to stress; also recorded: restores blunted cortisol response to stress; Peak salivary cortisol levels following stress procedure (peak change from baseline, log-transformed) ([4]; listed as Intranasal insulin): significantly increased
